Source: patent US9957295B2, “Peptides inhibiting cold-inducible RNA binding protein activity” (The Feinstein Institute for Medical Research, priority 2013, dated 2018)
“Also recorded” adds a separate entry of the source.

Legend:
[1] = target: T1, rhMD2 (Homo sapiens, UniProt Q9Y6Y9); assay: SPR binding to immobilized rhMD2; details: oligopeptides passed over immobilized rhMD2
T1 construct: Glu17-Asn160); 10-His (C); purchased R&D Systems; host or cells: E. coli
T1 sequence (Q9Y6Y9 17-160): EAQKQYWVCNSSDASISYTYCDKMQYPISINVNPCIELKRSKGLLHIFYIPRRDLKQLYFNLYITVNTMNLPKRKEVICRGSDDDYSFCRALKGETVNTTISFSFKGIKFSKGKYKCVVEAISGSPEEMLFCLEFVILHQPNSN
Procedure: Analysis of protein-protein and peptide-protein interactions were conducted using the BIAcore T200 instrument (GE Healthcare). Binding reactions were performed in 1×PBS buffer containing 0.01% Tween-20 (pH 7.4). The CM5 dextran chip (flow cell-2) was first activated by injection with 89 μl of 0.1 M […] and 0.1 M N-hydroxysuccinimide. An aliquot of 200 μl of 5 μg/ml of the ligand diluted in 10 mM sodium acetate (pH 4.5) was injected into flow cell-2 of the CM5 chip for immobilization. Next, 135 μl of 1 M ethanolamine (pH 8.2) was then injected to block the remaining active sites. The flow cell-1 without coating with the ligand was used as a control to evaluate nonspecific binding. The binding analyses were performed at flow rate of 30 μl/min at 25° C. To evaluate the binding, the analyte (ranging from 62.5 nM to 1.0 μM for kinetics analysis or 0.5 μM for yes/no binding analysis) was injected into flow cell-1 and -2 and the association of analyte and ligand was recorded respectively by surface plasmon resonance. The signal from the blank channel (flow cell-1) was subtracted from the channel (flow-cell 2) coated with the ligand. Data were analyzed by the BIAcore T200 Evaluation Software. For all samples, a blank injection with buffer alone was subtracted from the resulting reaction surface data. Data were globally fitted to the Lagmuir model for a 1:1 binding.
Surface plasmon resonance (SPR) analysis was utilized to determine the physical interaction and binding affinity between rhCIRP and pattern-recognition receptors and MD2. […] The sensorgrams show association and dissociation of analyte at the indicated concentration passed over to the immobilized ligand on the sensor chip, indicated as analyte/ligand on top of each diagram. […] The region of CIRP that binds to MD2 was determined via the synthesis of 32 oligopeptides (15-mer) covering the entire human CIRP sequence. The oligopeptides were passed over immobilized rhMD2 on the BIAcore instrument, followed by subsequent performance of a series of SPR analyses. Three oligopeptides with high binding affinity were indicated. […] Three oligopeptides, aa 101-115, 106-120 (C22), and 111-125 (C23) bound to rhMD2 with high affinity (FIG. 14 and FIG. 19).

[2] = tested on: LPS-induced TNF-α production in differentiated THP-1 cells; assay: Peptide inhibition of LPS-induced TNF-α production in differentiated THP-1 cells (ELISA); assay type: cell-based, human
Procedure: Human monocytic THP-1 cells (American Type Culture Collection, Manassas, Va.), were seeded in suspension into T75 tissue culture flask at a density of 1.5×10^6 cells and cultured with RPMI-1640 medium supplemented with 10% heat-inactivated fetal bovine serum, 1% penicillin/streptomycin, 2 mM glutamine and additional 0.05 mM β-mercaptoethanol at 37° C. in a humidified incubator with 5% CO2.
Cells were plated at a density of 5×10^4 per well in 96-well tissue culture plate and incubated with phorbol 12-myristate 13-acetate (20 ng/ml) for 48 h to become differentiated macrophages-like cells before experiment. Cells were used between passages 5 and 12. Cells were pretreated with indicated concentrations of CIRP-derived peptides C22 (SEQ ID NO: 13) or C23 (SEQ ID NO: 12) for 1 h, and then incubated in the absence or presence rmCIRP or LPS (from E. coli O111:B4, Sigma St. Louis, Mo.) with Opti-MEM-medium for 6 h. The cell-free supernatants were assayed for TNF-α by ELISA.
Supernatants were measured for TNF-α levels using a commercially available enzyme-linked immunosorbent assay (ELISA) kits-human TNF-α set (BioSource International, Camarillo, Calif.) according to the manufacturer's instruction.
The CIRP-derived peptides were also found to modulate LPS-induced TNF-α release in differentiated THP-1 cells. […] The doses of C22 or C23 at 2 ng/ml, equivalent to 1.3 pmol/ml and LPS at 10 ng/ml, equivalent to 0.67 pmol/ml, peptides and LPS molar ratios at 2:1 were used to treat cells.

[3] = tested on: MLVEC stimulated with rmCIRP; assay: rmCIRP-stimulated mouse lung vascular endothelial cells (MLVEC); assay type: cell-based; details: C23 200 ng/ml
Procedure: MLVEC were treated with rmCIRP in the presence of C23 or non-specific oligopeptide P5 (negative control) for 4 hours. Cells were harvested, lysed and the cell lysate analyzed by SDS-PAGE and Western blotting (immunodetection). Referring to FIG. 23A, ICAM-1 expression is abrogated in the presence of 200 ng/ml of the oligopeptide C23.
Similarly, the release of IL-1beta by MLVEC stimulated by rmCIRP was blocked (as determined by ELISA) when 200 ng/ml of the oligopeptide C23 was added to the media, as shown in FIG. 23B. (For FIGS. 23A and 23B: Mean+/−SD, n=3, *P<0.05 vs. groups without C23.)

[4] = tested on: mice subjected to CLP; assay: Mouse CLP sepsis, markers 24 hours post-CLP; assay type: in vivo; details: 8 mg/kg 2 hours after CLP
Procedure: Mice subjected to CLP were treated 2 hours later with the oligopeptide C23 (8 mg/kg) or saline.
In FIGS. 23A through 23C: Mean+/−SD; n=4-8/group; *P<0.05 vs. sham, #P<0.05 vs. vehicle, one-way ANOVA. mRNA amounts are measured by qPCR; protein levels are measured by ELISA.

[5] = tested on: septic mice (CLP); assay: Mouse CLP severe sepsis survival study; assay type: in vivo
Procedure: Mice were subjected to CLP and treated immediately after operation with the antibiotic imipenem ([…] BW) and resuscitative fluid. At 2 hours after CLP, mice were administered C23 (8 mg/kg BW) or an equivalent volume of normal saline (vehicle) via the internal jugular vein. Survival was then assessed every 12 hours.

[6] = tested on: LPS-induced TNF-α release, RAW 264.7 cells; assay: Polymyxin B on LPS-induced TNF-α release from RAW 264.7 cells; assay type: cell-based, murine; details: PMB 120 U/ml, LPS 10 ng/ml, 8 hours
Procedure: (§1) Murine macrophage-like RAW 264.7 cells were obtained from ATCC (American Type Culture Collection, Manassas, Va.), and were grown in Dulbecco's Modified Eagle's Medium (DMEM, Life Technologies, Grand Island, N.Y.) containing 10% (vol/vol) FBS (heat-inactivated at 56° C. for 30 min), 100 U/ml penicillin, 100 μg/ml streptomycin and 2 mM glutamine. Cells were re-suspended in medium and incubated in 6 or 48-well tissue-culture plates overnight in a humidified incubator (37° C., 5% CO2). In the experiments, cell monolayers were stimulated with or without recombinant CIRP at various indicated concentrations and for various indicated times. The cell-free supernatants were assayed for TNF-α by ELISA or for HMGB1 by western blot analysis.
(§2) To conduct this experiment, rmCIRP (1.5 μg/ml or LPS (10 ng/ml) was treated with polymyxin B (PMB, 120 U/ml) or heated at 80° C. for 30 min before being added to RAW 264.7 cells for 8 hours. *P<0.05 vs. rmCIRP; #P<0.05 vs. LPS.

[7] = tested on: rmCIRP-induced TNF-α production, RAW 264.7 cells; assay: Polymyxin B on rmCIRP-induced TNF-α production in RAW 264.7 cells; assay type: cell-based, murine; details: PMB 120 U/ml, rmCIRP 1.5 μg/ml, 8 hours
Procedure: as §1, §2

[8] = tested on: THP-1 cells; assay: TNF-α release from differentiated THP-1 cells stimulated with recombinant proteins; assay type: cell-based, human; details: 0.3 μg/ml each protein, 8 h, ELISA
Procedure: As with the murine model, the stimulation of TNF-α, release by rCIRP in a human model was studied. […] These experiments were conducted by incubating differentiated human THP-1 cells with rhCIRP or rmCIRP at the indicated concentrations for 4 h. *P<0.05 vs. no CIRP. Similarly, human PBMC were incubated with the indicated concentrations of rhCIRP for 8 h. *P<0.05 vs. no rhCIRP. Thus, stimulation of cytokine release by CIRP was not attributable to LPS contamination. Furthermore, CIRP-induced cytokine activation was conserved between rodents and humans.
rmCIRP induced TNF-α and HMGB1 release in macrophages (FIGS. 10a, b and c). It was reported that HMGB1 can also stimulate TNF-α release (Andersson, U., et al. High mobility group 1 protein (HMG-1) stimulates proinflammatory cytokine synthesis in human monocytes. J. Exp. Med. 192, 565-570 (2000)). The relationship between CIRP and HMGB1 on stimulating TNF-α release was analyzed by applying respective neutralizing antibodies. […] After 4 h, TNF-α levels in conditioned medium (CM) were assayed by ELISA. Data are mean±s.e.m. from three independent experiments. *P<0.05 vs. rmCIRP+ control IgG. In FIG. 16D, RAW 264.7 cells were pre-incubated with rabbit control IgG or anti-CIRP antibodies at indicated dilutions of 1 mg/ml for 20 min before adding 1.0 μg/ml rmCIRP. After 4 h, TNF-α levels in CM were assayed by ELISA. Data are mean±s.e.m. from three independent experiments. *P<0.05 vs. rmCIRP+ control IgG. THP-1 cells were incubated with 4 μg/ml of anti-CIRP antibodies, anti-HMGB1 antibodies, or non-immunized control IgG for 1 h prior to adding rmCIRP (0.3 μg/ml), rmHMGB1 (0.3 μg/ml), or rmCIRP/rmHMGB1 (0.3 μg/ml, 0.3 μg/ml) for 8 h. *P<0.05 vs. rmCIRP; #P<0.05 vs. rmHMGB1. […] Furthermore, rmCIRP, rmHMGB1, and rmCIRP plus rmHMGB1 induced TNF-α levels of 0.8, 0.6, and 1.6 ng/ml, respectively. […] TNF-α levels in all collected CM were assayed by ELISA. Data are mean±s.e.m. from three or four independent experiments.
Murine macrophage-like RAW 264.7 cells and human monocyte THP-1 cells were obtained from ATCC (Manassas, Va.). […]

[9] = target: TLR4 (Homo sapiens, UniProt O00206); details: literature; read-out: KD, binding to TLR4; cited from earlier work
Chain of TLR4 (O00206 24-631 limits assumed, species assumed): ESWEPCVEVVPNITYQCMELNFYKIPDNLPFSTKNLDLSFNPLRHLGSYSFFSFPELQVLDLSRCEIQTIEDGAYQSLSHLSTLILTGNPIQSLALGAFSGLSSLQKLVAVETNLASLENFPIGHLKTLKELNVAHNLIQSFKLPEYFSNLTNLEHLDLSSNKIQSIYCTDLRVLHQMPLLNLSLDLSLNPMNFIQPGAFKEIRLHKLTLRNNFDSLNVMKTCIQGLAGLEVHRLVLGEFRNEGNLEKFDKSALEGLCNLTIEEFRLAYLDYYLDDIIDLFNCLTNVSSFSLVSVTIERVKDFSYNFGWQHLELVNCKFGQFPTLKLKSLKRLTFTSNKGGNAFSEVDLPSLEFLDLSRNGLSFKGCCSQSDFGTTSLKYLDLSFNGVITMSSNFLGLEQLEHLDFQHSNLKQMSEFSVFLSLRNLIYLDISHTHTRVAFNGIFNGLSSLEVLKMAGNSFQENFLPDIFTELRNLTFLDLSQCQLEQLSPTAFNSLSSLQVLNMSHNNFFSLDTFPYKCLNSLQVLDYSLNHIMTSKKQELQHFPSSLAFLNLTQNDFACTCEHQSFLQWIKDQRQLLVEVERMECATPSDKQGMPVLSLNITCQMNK

In the case of “GGRGRGRGFSRGGGD (fragment of CIRP) [C22, 15-mer oligopeptide derived from human CIRP]”, the “binding affinity of 15-mer oligopeptides to rhMD2 (in words)” value (“binding affinity of 15-mer oligopeptides” for short) [1] is reported as “high affinity” and the “effect on LPS-induced TNF-α release in THP-1 cells (in words)” value (“effect on LPS-induced TNF-α release” for short) [2] is reported as “inhibit”.

With “GRGFSRGGGDRGYGG (fragment of CIRP) [C23, 15-mer oligopeptide derived from human CIRP]” the “binding affinity of 15-mer oligopeptides” value [1] was “high affinity; also recorded: highest affinity”, the “effect on LPS-induced TNF-α release” value [2] was “inhibit” and the “ICAM-1 expression in MLVEC” value ([3]; 4 hours, Western blot) was “abrogated”. For the same molecule, the “release of IL-1beta by MLVEC” value ([3]; ELISA) was “blocked”, the “serum levels of TNF-α and IL-6” value [4] was “lower” and the “expression of E-selectin, ICAM-1, TNF-α and IL-1β in the lungs” value ([4]; 24 hours post-CLP) was “significant decrease”. For the same molecule, the “survival (Kaplan-Meier, in words)” value ([5]; 8 mg/kg BW 2 hours after CLP, all vehicle mice died within 48 hours) was “some of C23-treated mice lived longer” and the average survival time ([5]; 8 mg/kg BW via internal jugular vein 2 hours after CLP, with imipenem) was 44.2 h.

In the case of Polymyxin B, the “inhibition of LPS-induced TNF-α release” value [6] is reported as 84% and the “effect on rmCIRP-induced TNF-α production” value [7] is reported as “did not interfere”.

In the case of “RGFFRGGRGRGRGFS (fragment of CIRP) [C21, 15-mer oligopeptide derived from human CIRP]”, the “binding affinity of 15-mer oligopeptides” value [1] is reported as “high affinity” and the “effect on LPS-induced TNF-α release” value [2] is reported as “does not suppress”.

B1: rmHMGB1: recombinant HMGB1 produced as in Yang et al. 2004 (protein, UniProt P63158 1-215, looked up)
High mobility group protein B1: MGKGDPKKPRGKMSSYAFFVQTCREEHKKKHPDASVNFSEFSKKCSERWKTMSAKEKGKFEDMAKADKARYEREMKTYIPPKGETKKKFKDPNAPKRPPSAFFLFCSEYRPKIKGEHPGLSIGDVAKKLGEMWNNTAADDKQPYEKKAAKLKEKYEKDIAAYRAKGKPDAAKKGVVKAEKSKKKKEEEDDEEDEEDEEEEEEEEDEDEEEDDDDE
With B1 the “induced TNF-α levels” value [8] was 0.6 ng/mL.

B2: rhMD2: recombinant human MD2 (Glu17-Asn160) with 10-His tag, expressed from E. coli, R&D Systems (protein)
chain: EAQKQYWVCNSSDASISYTYCDKMQYPISINVNPCIELKRSKGLLHIFYIPRRDLKQLYFNLYITVNTMNLPKRKEVICRGSDDDYSFCRALKGETVNTTISFSFKGIKFSKGKYKCVVEAISGSPEEMLFCLEFVILHQPNSNHHHHHHHHHH
In the case of B2, the Kd [9] is listed as 62.9 nM.
